Laboratory results as given in ChEMBL document CHEMBL1142804, “Design, synthesis, and evaluation of novelly substituted benzimidazole compounds as angiotensin II receptor antagonists” (Bioorg Med Chem Lett, 2005).

Columns and labels:
Format in all cases: functional
[1] = Competitive antagonism of Angiotensin II receptor in endothelium removed isolated rat aortic ring
[2] = Competitive antagonism of Angiotensin II receptor in endothelium removed isolated rat aortic ring; (n = 5); details: read-out: pA2 (converted)
[3] = Noncompetitive antagonism of Angiotensin II receptor in endothelium removed isolated rat aortic ring
[4] = Noncompetitive antagonism of Angiotensin II receptor in endothelium removed isolated rat aortic ring; (n = 5); details: read-out: pA2 (converted)

Row | Structure (SMILES) | pA10 [1] | Kb [2] [nM] | pA10 [3] | Kb [4] [nM]
1 | CCCCc1nc(Cl)c(CO)n1Cc1ccc(-c2ccccc2-c2nnn[nH]2)cc1 [LOSARTAN] | 6.5 | 39.8 | – | –
2 | CCOc1nc2cccc(C(=O)O)c2n1Cc1ccc(-c2ccccc2-c2nnn[nH]2)cc1 [CANDESARTAN] | 7.1 | 9.55 | – | –
3 | CCCCc1nc2c(N)cccc2n1Cc1ccc(-c2ccccc2C(=O)O)cc1 | 6.9 | 15.8 | – | –
4 | CCCCc1nc2c([N+](=O)[O-])cccc2n1Cc1ccc(-c2ccccc2C(=O)O)cc1 | – | – | 1.8 | 3.16
5 | CCCCc1nc2ccccc2n1Cc1ccc(-c2ccccc2C(=O)O)cc1 | 5.81 | 355 | – | –
6 | CCOCc1nc2c([N+](=O)[O-])cccc2n1Cc1ccc(-c2ccccc2C(=O)O)cc1 | – | – | 1.7 | 50.1
7 | CCCc1nc2c([N+](=O)[O-])cccc2n1Cc1ccc(-c2ccccc2C(=O)O)cc1 | – | – | 2.9 | 79.4
8 | CCc1nc2c([N+](=O)[O-])cccc2n1Cc1ccc(-c2ccccc2C(=O)O)cc1 | – | – | 3.4 | 100
